The experiment concerns the target human A2a adenosine receptor (Homo sapiens (Human), UniProt P29274). Description: A2a binding affinity using radioligand binding, Method (A). The note with it: Method (A): [3H]SCH58261 filtration binding. From the text:
The A2a receptor affinity binding assay measured the amount of binding of a tritiated ligand with high affinity for the A2a adenosine receptor to membranes made from HEK293 or CHO cells recombinantly expressing the human A2a adenosine receptor, in the presence of varying concentrations of a compound of the invention. The data were generated using either filtration binding or a homogenous scintillation proximity assay (SPA).
Method (A): Measurement of A2a Binding Affinity Using Radioligand Binding
148 μL (5 μg/mL) membranes (Perkin Elmer, Cat. No. RBHA2aM400UA) and 2 μL compounds of the invention to be tested (test compound) were transferred to individual wells of a 96-well polypropylene assay plate and incubated for 15 to 30 min at room temperature. [^3H] SCH58261 ((7-(2-phenylethyl)-5-amino-2-(2-furyl)-pyrazolo-[4,3-e]-1,2,4-triazolo[1,5-c]pyrimidine)) was diluted in assay buffer (50 mM Tris pH 7.4, 10 mM MgCl2, 0.005% Tween20) to a concentration of 4 nM and 50 μL transferred to each well of the assay plate. […] The assay plate was incubated at room temperature for 60 min with agitation. […] Filtering was achieved by aspirating the contents of the assay plate for 5 sec, then washing and aspirating the contents three times with ice-cooled wash buffer (50 mM Tris-HCl pH 7.4, 150 mM NaCl) and allowing the vacuum manifold to dry the plate for […]. The filter plate was incubated for at least 1 h at 55° C. and allowed to dry. The bottom of the filter plate was sealed with backing tape. […] The plate was incubated for at least 20 min, and then the amount of radioactivity remaining in each well was determined using a TopCount® (Perkin Elmer) scintillation counter. After normalization to total and non-specific binding, the percent effect at each compound concentration was calculated. The plot of percent effect versus the log of compound concentration was analyzed electronically using a 4-parameter logistic fit based on the Levenberg-Marquardt algorithm to generate IC50 values.

For 15 compounds, IC50 results are on record in patent US12414952B2 (Merck Sharp & Dohme LLC, priority 2018, dated 2025).

Molecules are shown by their SMILES.

Chain of human A2a adenosine receptor (P29274 whole entry): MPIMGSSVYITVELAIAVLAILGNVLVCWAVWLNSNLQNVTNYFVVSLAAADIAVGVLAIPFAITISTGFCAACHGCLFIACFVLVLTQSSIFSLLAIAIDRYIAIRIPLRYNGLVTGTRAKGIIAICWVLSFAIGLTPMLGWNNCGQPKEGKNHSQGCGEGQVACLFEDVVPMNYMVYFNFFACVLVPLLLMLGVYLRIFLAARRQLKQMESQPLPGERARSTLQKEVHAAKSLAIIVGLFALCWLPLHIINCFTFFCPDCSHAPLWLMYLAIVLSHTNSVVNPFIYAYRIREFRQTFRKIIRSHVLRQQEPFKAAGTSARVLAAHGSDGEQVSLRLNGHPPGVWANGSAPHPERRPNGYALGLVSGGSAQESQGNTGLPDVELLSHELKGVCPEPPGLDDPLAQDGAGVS

Usually IC50 stands for the concentration needed to halve the response being measured. Read a low IC50 as inhibition by little substance. For `Cc1c(-c2ccc(Cl)cc2F)nc(N)c2nc(Cc3ccccc3)nn12` [Example 3.21], the IC50 was 168 nM.

As to `Cc1c(-c2cnn(C(F)(F)F)c2)nc(N)c2nc(Cc3ccccc3)nn12` [Example 3.44], the IC50 is 490 nM.

In the case of `Cc1c(-c2cc(C(F)(F)F)nn2C)nc(N)c2nc(Cc3ccccc3)nn12` [Example 3.45], the concentration for half-maximal inhibition (IC50) was 17.8 nM.

Compound `Cc1c(-c2ncco2)nc(N)c2nc(Cc3ccccc3C(F)(F)F)nn12` [Example 7.3, 5-methyl-6-(oxazol-2-yl)-2-(2-(trifluoromethyl)benzyl)-[1,2,4]triazolo[1,5-a]pyrazin-8-amine] gave an IC50 of 0.5 nM.

With `Cc1c(-c2cc(F)ccc2F)nc(N)c2nc(Cc3ccc(C(F)(F)F)cc3)nn12` [Example 7.4, 6-(2,5-difluorophenyl)-5-methyl-2-(4-(trifluoromethyl)benzyl)-[1,2,4]triazolo[1,5-a]pyrazin-8-amine], the concentration for half-maximal inhibition (IC50) was 15.3 nM.

Take `Nc1nc(-c2ccccc2)cc2nc(CCO)nn12` [Example 14.3, 2-(5-amino-7-phenyl-[1,2,4]triazolo[1,5-c]pyrimidin-2-yl)ethan-1-ol]: the IC50 was determined as 493 nM.

The compound `Cc1c(-c2ncco2)nc(N)n2nc(CCN3CCc4c(ncn4C4CCCC4)C3)nc12` [Example 17.18, 2-(2-(1-cyclopentyl-1,4,6,7-tetrahydro-5H-imidazo[4,5-c]pyridin-5-yl)ethyl)-8-methyl-7-(oxazol-2-yl)-[1,2,4]triazolo[1,5-c]pyrimidin-5-amine] had an IC50 of 0.6 nM.

In the case of `Cc1c(-c2ncco2)nc(N)n2nc(CCN3CCc4ncn(C5CCCC5)c4C3)nc12` [Example 17.19, 2-(2-(3-cyclopentyl-3,4,6,7-tetrahydro-5H-imidazo[4,5-c]pyridin-5-yl)ethyl)-8-methyl-7-(oxazol-2-yl)-[1,2,4]triazolo[1,5-c]pyrimidin-5-amine], the IC50 is 3 nM.

Consider `Nc1nc(-c2ncco2)cc2nc(CCN3CC(F)(F)C3)nn12` [Example 17.20, 2-(2-(3,3-difluoroazetidin-1-yl)ethyl)-7-(oxazol-2-yl)-[1,2,4]triazolo[1,5-c]pyrimidin-5-amine], for which the IC50 was 90.9 nM.

For `Nc1nc(-c2ncco2)cc2nc(CCN3CCc4[nH]ncc4C3)nn12` [Example 17.21, 7-(oxazol-2-yl)-2-(2-(1,4,6,7-tetrahydro-5H-pyrazolo[4,3-c]pyridin-5-yl)ethyl)-[1,2,4]triazolo[1,5-c]pyrimidin-5-amine], the 50% inhibitory concentration (IC50) is 450 nM.

The compound `Cn1nc(C(F)(F)F)c2c1CCN(CCc1nc3cc(-c4ncco4)nc(N)n3n1)C2` [Example 17.22, 2-(2-(1-methyl-3-(trifluoromethyl)-1,4,6,7-tetrahydro-5H-pyrazolo[4,3-c]pyridin-5-yl)ethyl)-7-(oxazol-2-yl)-[1,2,4]triazolo[1,5-c]pyrimidin-5-amine] had an IC50 of 78.9 nM.

Consider `Nc1nc(-c2ncco2)cc2nc(CCN3CCN(CC4CC4)C(=O)C3)nn12` [Example 17.23, 4-(2-(5-amino-7-(oxazol-2-yl)-[1,2,4]triazolo[1,5-c]pyrimidin-2-yl)ethyl)-1-(cyclopropylmethyl)piperazin-2-one], for which the IC50 turned out to be 122 nM.

On to `Cc1cc2n(n1)CCN(CCc1nc3cc(-c4ncco4)nc(N)n3n1)C2` [Example 17.24, 2-(2-(2-methyl-6,7-dihydropyrazolo[1,5-a]pyrazin-5(4H)-yl)ethyl)-7-(oxazol-2-yl)-[1,2,4]triazolo[1,5-c]pyrimidin-5-amine], for which the IC50 stood at 319 nM.

Turning to `Nc1nc(-c2ncco2)cc2nc(CCN3CCc4nccnc4C3)nn12` [Example 17.25, 2-(2-(7,8-dihydropyrido[3,4-b]pyrazin-6(5H)-yl)ethyl)-7-(oxazol-2-yl)-[1,2,4]triazolo[1,5-c]pyrimidin-5-amine], the IC50 was 402 nM.

Regarding `CC(C)c1ncc2n1CCN(CCc1nc3c(N)nc(-c4ncco4)cn3n1)C2` [Example 17.26, 2-(2-(3-isopropyl-5,6-dihydroimidazo[1,5-a]pyrazin-7(8H)-yl)ethyl)-6-(oxazol-2-yl)-[1,2,4]triazolo[1,5-a]pyrazin-8-amine], the IC50 amounted to 629 nM.
